# Laboratory results published in PubChem BioAssay AID330 (DTP/NCI, 2004).
# Values joined by “and” are separate entries in the source; they are usually repeats but may differ in a detail not shown here. Identical values can stand only once. Toxic doses and inconclusive results are not listed.
# System: P388 leukemia ip, CD2F1 mice, survival T/C
# Experiment: NCI In Vivo Anticancer Drug Screen. Data for tumor model P388 Leukemia (intraperitoneal) in CD2F1 (CDF1) mice
# Settings: endpoint: median survival time, higher = longer survival
# Summary of the method: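 Mice carrying the transplanted tumor received test compound or vehicle. Survival was recorded in each group, and the value is the treated-group measurement divided by that of the vehicle-treated control group.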
# [1] = dose: 100.0 mg/kg/injection, schedule: Q01DX001 (ip), vehicle: Klucel (hydroxypropylcellulose) (HPC)
# [2] = dose: 200.0 mg/kg/injection, schedule: Q01DX001 (ip), vehicle: Klucel (hydroxypropylcellulose) (HPC)
# [3] = dose: 400.0 mg/kg/injection, schedule: Q01DX001 (ip), vehicle: Klucel (hydroxypropylcellulose) (HPC)
# [4] = dose: 100.0 mg/kg/injection, schedule: Q01DX009 (ip), vehicle: saline with Tween-80
# [5] = dose: 200.0 mg/kg/injection, schedule: Q01DX009 (ip), vehicle: saline with Tween-80
# [6] = dose: 50.0 mg/kg/injection, schedule: Q01DX009 (ip), vehicle: saline
# [7] = dose: 100.0 mg/kg/injection, schedule: Q01DX009 (ip), vehicle: saline
# [8] = dose: 60.0 mg/kg/injection, schedule: Q01DX005 (ip), vehicle: Klucel (hydroxypropylcellulose) (HPC)
# [9] = dose: 120.0 mg/kg/injection, schedule: Q01DX005 (ip), vehicle: Klucel (hydroxypropylcellulose) (HPC)
# [10] = dose: 240.0 mg/kg/injection, schedule: Q01DX005 (ip), vehicle: Klucel (hydroxypropylcellulose) (HPC)
# [11] = dose: 60.0 mg/kg/injection, schedule: Q01DX005 (ip), vehicle: saline
# [12] = dose: 50.0 mg/kg/injection, schedule: Q01DX005 (ip), vehicle: Klucel (hydroxypropylcellulose) (HPC)
# [13] = dose: 100.0 mg/kg/injection, schedule: Q01DX005 (ip), vehicle: Klucel (hydroxypropylcellulose) (HPC)
# [14] = dose: 200.0 mg/kg/injection, schedule: Q01DX005 (ip), vehicle: Klucel (hydroxypropylcellulose) (HPC)
compound,measurement,setting,value
COc1ccc(Cn2nnc(C(N)=O)c2Cl)cc1,T/C,[1],99 % of control
same,T/C,[2],99 % of control
same,T/C,[3],89 % of control
CC1(C)C/C(=C\c2cc(O)ccc2[N+](=O)[O-])C(=O)c2ccccc21,T/C,[4],86 % of control
same,T/C,[5],95 % of control
same,T/C,"dose: 400.0 mg/kg/injection, schedule: Q01DX009 (ip), vehicle: saline with Tween-80",90 % of control
O[C@@H]1CCC[C@@H]2O[C@H]12,T/C,"dose: 100.0 mg/kg/injection, schedule: Q04DX002 (ip), vehicle: saline",102 % of control
same,T/C,"dose: 200.0 mg/kg/injection, schedule: Q04DX002 (ip), vehicle: saline",103 % of control
same,T/C,"dose: 400.0 mg/kg/injection, schedule: Q04DX002 (ip), vehicle: saline",109 % of control
O=[N+]([O-])O.[Al],T/C,"dose: 25.0 mg/kg/injection, schedule: Q01DX009 (ip), vehicle: saline",100 % of control
same,T/C,[6],91 % of control
same,T/C,[7],86 % of control
same,T/C,"dose: 100.0 mg/kg/injection, schedule: Q04DX003 (ip), vehicle: saline",90 % of control
c1ccc2c(NC3=NCCO3)c3ccccc3nc2c1,T/C,"dose: 3.12 mg/kg/injection, schedule: Q01DX009 (ip), vehicle: Klucel (hydroxypropylcellulose) (HPC)",95 % of control
same,T/C,"dose: 6.25 mg/kg/injection, schedule: Q01DX009 (ip), vehicle: Klucel (hydroxypropylcellulose) (HPC)",95 % of control
same,T/C,"dose: 12.5 mg/kg/injection, schedule: Q01DX009 (ip), vehicle: Klucel (hydroxypropylcellulose) (HPC)",103 % of control
same,T/C,"dose: 25.0 mg/kg/injection, schedule: Q01DX009 (ip), vehicle: Klucel (hydroxypropylcellulose) (HPC)",111 % of control
CC1(C)CC(=O)C2=C(SC3=C(C2)C(=O)CC(C)(C)S3)S1,T/C,[8],104 % of control
same,T/C,[9],100 % of control
same,T/C,[10],87 % of control
COc1ccc(C2C(C#N)=C(N)Oc3c2c(C)nn3-c2ccccc2)cc1 (stereo unspecified),T/C,"dose: 50.0 mg/kg/injection, schedule: Q01DX009 (ip), vehicle: Klucel (hydroxypropylcellulose) (HPC)",89 % of control and 92 % of control
same,T/C,"dose: 100.0 mg/kg/injection, schedule: Q01DX009 (ip), vehicle: Klucel (hydroxypropylcellulose) (HPC)",99 % of control and 96 % of control
same,T/C,"dose: 200.0 mg/kg/injection, schedule: Q01DX009 (ip), vehicle: Klucel (hydroxypropylcellulose) (HPC)",90 % of control and 97 % of control
NC(CC(C(=O)O)c1ccccc1)C(=O)O (stereo unspecified),T/C,"dose: 50.0 mg/kg/injection, schedule: Q01DX009 (ip), vehicle: saline with Tween-80",106 % of control
same,T/C,[4],94 % of control
same,T/C,[5],94 % of control
N#CCCNc1ccc(NCCC#N)c2c1C(=O)c1c(O)ccc(O)c1C2=O,T/C,"dose: 25.0 mg/kg/injection, schedule: Q04DX002 (ip), vehicle: saline with Tween-80",103 % of control
same,T/C,"dose: 50.0 mg/kg/injection, schedule: Q04DX002 (ip), vehicle: saline with Tween-80",94 % of control
same,T/C,"dose: 100.0 mg/kg/injection, schedule: Q04DX002 (ip), vehicle: saline with Tween-80",101 % of control
same,T/C,"dose: 200.0 mg/kg/injection, schedule: Q04DX002 (ip), vehicle: saline with Tween-80",104 % of control
COc1cc2cnc(-c3ccccc3)c(O)c2cc1OC,T/C,"dose: 100.0 mg/kg/injection, schedule: Q04DX003 (ip), vehicle: suspension in saline",98 % of control
same,T/C,"dose: 200.0 mg/kg/injection, schedule: Q04DX003 (ip), vehicle: suspension in saline",94 % of control
same,T/C,"dose: 400.0 mg/kg/injection, schedule: Q04DX003 (ip), vehicle: suspension in saline",94 % of control
CCN(CC)CCOC(=O)/C=C/c1ccccc1,T/C,[11],106 % of control
same,T/C,"dose: 120.0 mg/kg/injection, schedule: Q01DX005 (ip), vehicle: saline",107 % of control
same,T/C,"dose: 240.0 mg/kg/injection, schedule: Q01DX005 (ip), vehicle: saline",102 % of control
O=C(Nc1cccc(C(F)(F)F)c1)C(Cl)=C(Cl)Cl,T/C,[8],103 % of control
same,T/C,[9],111 % of control
same,T/C,[10],95 % of control
COc1ccc2c3c1OC1C(OC)(OC)C=CC4(F)[C@@H](C2)N(C)CC[C@]314 (stereo partly specified),T/C,[1],105 % of control
same,T/C,[2],100 % of control
same,T/C,[3],96 % of control
CC(=O)C1C(c2ccccc2)SC(c2ccccc2)CC1(C)O (stereo unspecified),T/C,"dose: 100.0 mg/kg/injection, schedule: Q04DX002 (ip), vehicle: Klucel (hydroxypropylcellulose) (HPC)",96 % of control
same,T/C,"dose: 200.0 mg/kg/injection, schedule: Q04DX002 (ip), vehicle: Klucel (hydroxypropylcellulose) (HPC)",94 % of control
same,T/C,"dose: 400.0 mg/kg/injection, schedule: Q04DX002 (ip), vehicle: Klucel (hydroxypropylcellulose) (HPC)",87 % of control
COc1cc(OC)c2c(c1)C(C1c3cc(C)cc(O)c3C(=O)c3c(OC)cc(OC)cc31)c1cc(C)cc(O)c1C2=O (stereo unspecified),T/C,"dose: 12.5 mg/kg/injection, schedule: Q01DX005 (ip), vehicle: Klucel (hydroxypropylcellulose) (HPC)",105 % of control
same,T/C,"dose: 25.0 mg/kg/injection, schedule: Q01DX005 (ip), vehicle: Klucel (hydroxypropylcellulose) (HPC)",100 % of control
same,T/C,[12],92 % of control
same,T/C,[13],92 % of control
same,T/C,[14],96 % of control
CCOP(=O)(OCC)C1CCCN2CCc3cc(OC)c(OC)cc3C12 (stereo unspecified),T/C,[6],91 % of control
same,T/C,[7],98 % of control
same,T/C,"dose: 200.0 mg/kg/injection, schedule: Q01DX009 (ip), vehicle: saline",95 % of control
CC(=O)OCC1OC(Nc2ncc(-c3ccc(C)cc3)s2)C(OC(C)=O)C(OC(C)=O)C1OC(C)=O (stereo unspecified),T/C,"dose: 50.0 mg/kg/injection, schedule: Q01DX005 (ip), vehicle: saline with Tween-80",98 % of control
same,T/C,"dose: 100.0 mg/kg/injection, schedule: Q01DX005 (ip), vehicle: saline with Tween-80",98 % of control
same,T/C,"dose: 200.0 mg/kg/injection, schedule: Q01DX005 (ip), vehicle: saline with Tween-80",92 % of control
O=C1c2ccccc2C(=O)N1/N=C/c1ccc(O)cc1,T/C,[12],101 % of control
same,T/C,[13],99 % of control
same,T/C,[14],100 % of control
CC1=Nc2cccnc2N(C)N1C,T/C,"dose: 15.0 mg/kg/injection, schedule: Q01DX005 (ip), vehicle: saline",94 % of control
same,T/C,"dose: 30.0 mg/kg/injection, schedule: Q01DX005 (ip), vehicle: saline",98 % of control
same,T/C,[11],98 % of control and 106 % of control
COc1ccc2oc3cc(Cl)ccc3c(=O)c2c1,T/C,"dose: 60.0 mg/kg/injection, schedule: Q01DX005 (ip), vehicle: saline with Tween-80",118 % of control
same,T/C,"dose: 120.0 mg/kg/injection, schedule: Q01DX005 (ip), vehicle: saline with Tween-80",101 % of control
same,T/C,"dose: 240.0 mg/kg/injection, schedule: Q01DX005 (ip), vehicle: saline with Tween-80",100 % of control
Cc1ccc(C)[nH]1,T/C,"dose: 12.5 mg/kg/injection, schedule: Q01DX001 (ip), vehicle: alcohol",109 % of control
same,T/C,"dose: 25.0 mg/kg/injection, schedule: Q01DX001 (ip), vehicle: alcohol",111 % of control
same,T/C,"dose: 50.0 mg/kg/injection, schedule: Q01DX001 (ip), vehicle: alcohol",101 % of control and 102 % of control
CSC1SCC2C(=O)N(C)C(C(C)C)C(=O)OCC(NC(=O)c3cnc4ccccc4n3)C(=O)NC(C)C(=O)N(C)C1C(=O)N(C)C(C(C)C)C(=O)OCC(NC(=O)c1cnc3ccccc3n1)C(=O)NC(C)C(=O)N2C (stereo unspecified),T/C,"dose: 0.5 micrograms/kg/injection, schedule: Q01DX010 (ip), vehicle: saline",100 % of control
same,T/C,"dose: 30.0 micrograms/kg/injection, schedule: Q01DX009 (oral), vehicle: saline with Tween-80",97 % of control
same,T/C,"dose: 60.0 micrograms/kg/injection, schedule: Q01DX009 (ip), vehicle: saline with Tween-80",205 % of control
same,T/C,"dose: 60.0 micrograms/kg/injection, schedule: Q01DX009 (oral), vehicle: saline with Tween-80",101 % of control
same,T/C,"dose: 120.0 micrograms/kg/injection, schedule: Q01DX009 (oral), vehicle: saline with Tween-80",96 % of control
same,T/C,"dose: 240.0 micrograms/kg/injection, schedule: Q01DX009 (ip), vehicle: saline with Tween-80",117 % of control
same,T/C,"dose: 240.0 micrograms/kg/injection, schedule: Q01DX009 (oral), vehicle: saline with Tween-80",99 % of control
same,T/C,"dose: 480.0 micrograms/kg/injection, schedule: Q01DX009 (oral), vehicle: saline with Tween-80",96 % of control
